Reference: patent publication US12318393B2, “Modulators of orphan nuclear receptors for NASH and other metabolic disorders” (Emory University, priority 2018, dated 2025)

Tests used:
[1] = biological target: T1, RORα (Homo sapiens, UniProt P35398); assay: RORα activity by luciferase reporter (miR-122 promoter with WT or mutated RORE) in Huh-7 cells; assay type: cell-based; settings: 24 hours of treatment
T1 construct: endogenous in cells; host or cells: Huh-7 (human hepatocellular carcinoma cells)
T1 sequence (P35398 1-523): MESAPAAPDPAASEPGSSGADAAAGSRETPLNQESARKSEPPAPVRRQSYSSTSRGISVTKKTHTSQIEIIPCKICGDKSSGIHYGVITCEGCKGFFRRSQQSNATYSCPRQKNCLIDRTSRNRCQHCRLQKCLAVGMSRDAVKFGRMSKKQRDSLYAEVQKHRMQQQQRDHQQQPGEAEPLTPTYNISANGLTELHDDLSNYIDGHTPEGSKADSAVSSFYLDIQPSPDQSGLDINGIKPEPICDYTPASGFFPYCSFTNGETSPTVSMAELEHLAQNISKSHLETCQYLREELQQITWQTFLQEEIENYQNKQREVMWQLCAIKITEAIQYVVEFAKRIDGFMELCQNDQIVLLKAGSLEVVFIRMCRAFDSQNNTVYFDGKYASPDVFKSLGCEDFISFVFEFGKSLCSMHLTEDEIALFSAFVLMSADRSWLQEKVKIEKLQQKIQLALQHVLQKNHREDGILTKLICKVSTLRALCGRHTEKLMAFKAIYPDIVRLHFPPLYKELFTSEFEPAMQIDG
Protocol: Huh-7 cells were transfected with a luciferase reporter plasmid containing the miR-122 promoter (extends to −900 from the transcription start site) with intact wild-type (WT) RORα response element (RORE) or mutated RORE (mut). The cells were treated with Compound 1 one day (24 hours) post-transfection at the indicated concentrations. Luciferase expression was measured after 24 hours of treatment and normalized to Renilla Luciferase activity expressed from a co-transfected pRL plasmid. The pRL Vector, which provides constitutive expression of Renilla luciferase, was used in combination with a firefly luciferase vector to co-transfect cells. […]
Luciferase assay. […] Firefly and Renilla luciferase activity was assessed using the Dual Luciferase Reporter Assay system (Promega). Readings were taken in triplicates on a Mithras LB 940 Luminometer (Berthold Technologies). […]
Following transfections, the cells were lysed with passive lysis buffer (Cat #E1941; Promega), shaking for 20 min at RT and transferred into appropriate 96-well plate. Firefly and Renilla luciferase activity was assessed using the Dual Luciferase Reporter Assay system (Cat #E1910; Promega) on a luminometer Mithras 2000 (Centro XZ, LB960, Berthold Technologies, Bad Wildbad, Germany). […] Readings were taken in triplicate.

[2] = system: C57BL/6 mice fed with HFD; assay: Multi-parameter metabolic assessment (metabolic cages) in HFD-fed C57BL/6 mice; assay type: in vivo; settings: 15 mg/kg 3 times a week, after 2 weeks, 24 hr period, vs saline
Protocol: Metabolic and activity profiles of the mice were measured, by using the Promethion High-Definition Behavioral Phenotyping System (Sable Instruments, Inc., Las Vegas, NV, USA), which is a multi-parameter assessment incorporating sub-systems for open-circuit indirect calorimetry, feeding, water intake, activity, running wheel and body mass measurements in a conventional live-in home cage that minimizes stress. Data acquisition and instrument control were performed using the MetaScreen software version 2.2.18.0, and the obtained raw data were processed using ExpeData version 1.8.4 using an analysis script detailing all aspects of data transformation. […] Respiratory gases were measured by using the GA-3 gas analyzer (Sable Systems Inc., Las Vegas, NV, USA) using a pull-mode, negative-pressure system. Air flow was measured and controlled by the FR-8 (Sable Systems Inc., Las Vegas, NV, USA), with a set flow rate of 2000 mL/min. Water vapor was continuously measured and its dilution effect on 02 and CO2 were mathematically compensated. Effective mass was calculated by ANCOVA analysis. Respiratory quotient (RQ) was calculated as the ratio of VCO2/VO2. Total energy expenditure (TEE) was calculated as VO2×(3.815+1.232×RQ), normalized to effective body mass, and expressed as kcal/h/kgeff.Mass. […]

O=C1Nc2cc(C(=O)N3CCC(Cc4ccccc4)CC3)ccc2Nc2ccccc21 [Compound 1]
luciferase expression, mutated RORE ([1]; Huh-7, miR-122 promoter reporter with mutated RORE): negates activity | luciferase expression, WT RORE ([1]; Huh-7, miR-122 promoter reporter with wild-type RORE): dose-dependent increase | fat oxidation [2]: increased | total energy expenditure (TEE) [2]: increased
